Patent US20120309739A1, “AKT / PKB INHIBITORS” (ALMAC DISCOVERY LIMITED, priority 2009, published 2012)
Counter-ions that a name gives are not always drawn.

Tests used:
Format in all cases: biochemical
AKT2 = molecular target: T1, AKT2 (Homo sapiens, UniProt P31751); assay: AKT Kinase Assay (IMAP fluorescent polarisation) vs AKT2; details: activated AKT2, FAM Crosstide substrate
T1 construct: purchased SignalChem
Experimental: (§1) Testing of the compounds was performed using an AKT Kinase Assay:
(§2) Activated AKT isoforms 1, 2 and 3 were assayed utilising a 5′ FAM Crosstide (Seq. GRPRTSSFAEG-OH). The extent of kinase phosphorylation was determined by fluorescent polarisation using IMAP progressive binding reagent, which introduces binding beads which allow the reagent to specifically bind to phosphate residues via covalent co-ordination complex bonds.
(§3) iMAP binding solution stops Crosstide/kinase interaction and specifically binds phosphorylated substrates. The degree of phosphorylation is determined by fluorescent polarisation (excitation 485 nm; emission 528 nm) or the reduction in speed of rotation of the excited substrate.
(§4) The following materials were used in the assay: • a) Activated AKT isoforms (SignalChem.) dissolved in Complete Reaction buffer at a pre-determined concentration selected so that the assay was carried out in the linear range. • b) AKT substrate peptide: FAM Crosstide (R7110) Molecular Devices, diluted in complete reaction buffer. • c) iMAP Progressive Screening Express Kit (R8127) Molecular Devices • d) Complete Reaction Buffer containing 0.1% BSA, 10 mM Tris-HCl, 10 mM MgCl2, 0.05% NaN3 and 0.01% phosphate free BSA, 1 mM DTT • e) Progressive Binding Solution containing 75% Buffer A, 25% Buffer B and low volume Binding Reagent which contains the binding entity for the assay • f) ATP diluted in complete reaction buffer • g) Black polystyrene 384 well assay plates (Nunc). • h) Biotek Synergy 4 Hybrid Plate reader.
(§5) 50 μl of test compound was dissolved in DMSO (Sigma Aldrich) and serially diluted in complete reaction buffer to give a fourteen point half log dose response and plated into 384 well black plates. The compound was incubated at room temperature with activated AKT isoform ([…]) at the pre-determined concentration, for 45 minutes.
(§6) […] of ATP solution mixed with 2.5 μl of AKT substrate peptide (FAM Crosstide (R7110) Molecular Devices) were dispensed into each well and the plate centrifuged at 1000 rpm for 20 seconds to ensure homogenous mixing of reagents. The reaction mix was incubated in the dark for one hour at room temperature.
(§7) The kinase reaction was stopped by the addition of Progressive Binding Solution and the mixture allowed to equilibrate for one hour in the dark, at room temperature.
(§8) The fluorescent polarisation generated in each well was determined using a […] Synergy 4 Hybrid plate reader. In brief, each reaction solution was excited at 485 nm with the emission measured at 528 nm in both the parallel and perpendicular pathway.
(§9) The polarisation value generated in each well was calculated by Gen5 software (Biotek) and the % inhibition of kinase activity compared to vehicle control was calculated via GraphPad Prism. IC50 values for each compound were calculated by non-linear regression analysis using Prism software.
(§10) All plates were internally controlled by two methods. Firstly, by calculating the signal:noise ratio; based on kinase polarisation without inhibitor and polarisation generated by complete reaction buffer in the absence of activated kinase. Secondly by determining IC50 values generated by known inhibitors of the AKT isoforms.

AKT3 = molecular target: T2, AKT3 (Homo sapiens, UniProt Q9Y243); assay: AKT Kinase Assay (IMAP fluorescent polarisation) vs AKT3; details: activated AKT3, FAM Crosstide substrate
T2 construct: purchased SignalChem
T2 sequence (Q9Y243 whole entry): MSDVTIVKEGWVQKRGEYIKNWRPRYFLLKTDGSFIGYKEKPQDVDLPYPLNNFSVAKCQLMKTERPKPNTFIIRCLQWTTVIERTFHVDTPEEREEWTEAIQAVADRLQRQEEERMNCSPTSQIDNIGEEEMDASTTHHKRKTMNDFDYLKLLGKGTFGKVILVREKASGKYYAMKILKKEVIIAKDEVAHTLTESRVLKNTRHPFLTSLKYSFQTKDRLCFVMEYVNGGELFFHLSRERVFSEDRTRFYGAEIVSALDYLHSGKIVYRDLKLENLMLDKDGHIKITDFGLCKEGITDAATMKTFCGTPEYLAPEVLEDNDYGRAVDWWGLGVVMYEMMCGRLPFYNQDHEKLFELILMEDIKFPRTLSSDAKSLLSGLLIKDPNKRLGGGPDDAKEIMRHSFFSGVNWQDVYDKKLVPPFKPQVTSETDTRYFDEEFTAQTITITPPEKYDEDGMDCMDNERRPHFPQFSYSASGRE
Experimental: as §1, §2, §3, §4, §5, §6, §7, §8, §9, §10

AKT1 = molecular target: T3, AKT1 (Homo sapiens, UniProt P31749); assay: AKT Kinase Assay (IMAP fluorescent polarisation) vs AKT1; details: activated AKT1, FAM Crosstide substrate
T3 construct: purchased SignalChem
T3 sequence (P31749 whole entry): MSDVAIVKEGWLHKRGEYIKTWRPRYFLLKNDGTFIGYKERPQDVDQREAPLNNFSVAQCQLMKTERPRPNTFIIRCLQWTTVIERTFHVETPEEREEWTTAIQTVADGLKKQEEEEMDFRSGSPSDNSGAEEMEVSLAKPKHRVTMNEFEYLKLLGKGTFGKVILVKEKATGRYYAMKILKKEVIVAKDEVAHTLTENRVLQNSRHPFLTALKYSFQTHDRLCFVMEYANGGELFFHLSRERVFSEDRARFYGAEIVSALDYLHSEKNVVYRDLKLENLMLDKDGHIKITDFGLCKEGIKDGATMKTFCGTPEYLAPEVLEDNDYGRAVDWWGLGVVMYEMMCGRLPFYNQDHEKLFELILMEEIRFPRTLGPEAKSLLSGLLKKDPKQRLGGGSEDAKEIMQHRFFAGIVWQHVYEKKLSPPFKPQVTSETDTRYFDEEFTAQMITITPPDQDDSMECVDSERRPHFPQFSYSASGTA
Experimental: as §1, §2, §3, §4, §5, §6, §7, §8, §9, §10

T1 sequence (P31751 whole entry): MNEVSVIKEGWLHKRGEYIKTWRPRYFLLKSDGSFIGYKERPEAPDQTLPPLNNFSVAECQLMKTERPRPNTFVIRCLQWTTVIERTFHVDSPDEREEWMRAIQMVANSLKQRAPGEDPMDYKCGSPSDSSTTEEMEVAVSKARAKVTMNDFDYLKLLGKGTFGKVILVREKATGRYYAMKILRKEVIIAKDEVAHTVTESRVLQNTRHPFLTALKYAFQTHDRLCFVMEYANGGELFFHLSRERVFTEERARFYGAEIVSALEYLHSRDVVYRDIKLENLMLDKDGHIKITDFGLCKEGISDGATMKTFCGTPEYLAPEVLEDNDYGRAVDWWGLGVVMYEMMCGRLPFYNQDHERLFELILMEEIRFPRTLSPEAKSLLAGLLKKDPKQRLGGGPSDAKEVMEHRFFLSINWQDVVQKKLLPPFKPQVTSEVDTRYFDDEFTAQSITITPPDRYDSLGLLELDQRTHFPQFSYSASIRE

SMILES	IC50 (AKT2)	IC50 (AKT3)	IC50 (AKT1)
Cn1c(N2CC(O)C2)nc2oc(-c3ccc(C4(N)CCC4)cc3)c(-c3ccccc3)c2c1=O [Example 61, 6-(4-(1-Aminocyclobutyl)phenyl)-2-(3-hydroxyazetidin-1-yl)-3-methyl-5-phenylfuro[2,3-d]pyrimidin-4(3H)-one]	100 to 1000 nM	1000 to 10000 nM	100 to 1000 nM
C[C@@H](O)CNc1nc2oc(-c3ccc(C4(N)CCC4)cc3)c(-c3ccccc3)c2c(=O)n1C [Example 62, (R)-6-(4-(1-Aminocyclobutyl)phenyl)-2-((2-hydroxypropyl)amino)-3-methyl-5-phenylfuro[2,3-d]pyrimidin-4(3H)-one]	100 to 1000 nM	1000 to 10000 nM	100 to 1000 nM
Cn1c(NCC(N)=O)nc2oc(-c3ccc(C4(N)CCC4)cc3)c(-c3ccccc3)c2c1=O [Example 63, 2-((6-(4-(1-Aminocyclobutyl)phenyl)-3-methyl-4-oxo-5-phenyl-3,4-dihydrofuro[2,3-d]pyrimidin-2-yl)amino)acetamide]	100 to 1000 nM	> 10000 nM	100 to 1000 nM
Cn1c(NCCO)nc2oc(-c3ccc(C4(N)CCC4)cc3)c(-c3ccccc3)c2c1=O [Example 64, 6-(4-(1-Aminocyclobutyl)phenyl)-2-(2-hydroxyethylamino)-3-methyl-5-phenylfuro[2,3-d]pyrimidin-4(3H)-one hydrochloride]	100 to 1000 nM	1000 to 10000 nM	≤ 100 nM
CNc1nc2oc(-c3ccc(C4(N)CCC4)cc3)c(-c3ccccc3)c2c(=O)n1C [Example 65, 6-(4-(1-Aminocyclobutyl)phenyl)-3-methyl-2-(methylamino)-5-phenylfuro[2,3-d]pyrimidin-4(3H)-one hydrochloride]	100 to 1000 nM	1000 to 10000 nM	100 to 1000 nM
Cn1cnc2oc(-c3ccc(C4(N)CCC4)cc3)c(-c3ccccc3)c2c1=O [Example 66, 6-(4-(1-Aminocyclobutyl)phenyl)-3-methyl-5-phenylfuro[2,3-d]pyrimidin-4(3H)-one]	100 to 1000 nM	> 10000 nM	100 to 1000 nM
COCCn1c(SC)nc2oc(-c3ccc(C4(N)CCC4)cc3)c(-c3ccccc3)c2c1=O [Example 67, 6-(4-(1-Aminocyclobutyl)phenyl)-3-(2-methoxyethyl)-2-(methylthio)-5-phenylfuro[2,3-d]pyrimidin-4(3H)-one, HCl]	≤ 100 nM	100 to 1000 nM	100 to 1000 nM
CNc1nc(SC)nc2oc(-c3ccc(C4(N)CCC4)cc3)c(-c3ccccc3)c12 [Example 68, 6-(4-(1-Aminocyclobutyl)phenyl)-N-methyl-2-(methylthio)-5-phenylfuro[2,3-d]pyrimidin-4-amine, HCl]	100 to 1000 nM	100 to 1000 nM	100 to 1000 nM
CNc1nc2oc(-c3ccc(C4(N)CCC4)cc3)c(-c3ccccc3)c2c(=O)n1CCOC [Example 69, 6-(4-(1-Aminocyclobutyl)phenyl)-3-(2-methoxyethyl)-2-(methylamino)-5-phenylfuro[2,3-d]pyrimidin-4(3H)-one, HCl]	100 to 1000 nM	> 10000 nM	1000 to 10000 nM
CN(C)c1nc(NCCO)nc2oc(-c3ccc(C4(N)CCC4)cc3)c(-c3ccccc3)c12 [Example 70, 2-(6-(4-(1-Aminocyclobutyl)phenyl)-4-(dimethylamino)-5-phenylfuro[2,3-d]pyrimidin-2-ylamino)ethanol, HCl]	1000 to 10000 nM	> 10000 nM	1000 to 10000 nM
NC1(c2ccc(-c3oc4nc(NCCO)nc(N5CCOCC5)c4c3-c3ccccc3)cc2)CCC1 [Example 71, 2-((6-(4-(1-Aminocyclobutyl)phenyl)-4-morpholino-5-phenylfuro[2,3-d]pyrimidin-2-yl)amino)ethanol]	1000 to 10000 nM	> 10000 nM	1000 to 10000 nM
Cc1nc(NCCO)nc2oc(-c3ccc(C4(N)CCC4)cc3)c(-c3ccccc3)c12 [Example 72, 2-((6-(4-(1-Aminocyclobutyl)phenyl)-4-methyl-5-phenylfuro[2,3-d]pyrimidin-2-yl)amino)ethanol]	100 to 1000 nM	1000 to 10000 nM	100 to 1000 nM
NC1(c2ccc(-c3oc4nc(NCCO)nc(C(F)(F)F)c4c3-c3ccccc3)cc2)CCC1 [Example 73, 2-((6-(4-(1-Aminocyclobutyl)phenyl)-5-phenyl-4-(trifluoromethyl)furo[2,3-d]pyrimidin-2-yl)amino)ethanol]	100 to 1000 nM	> 10000 nM	100 to 1000 nM
CSc1nc(C(F)(F)F)c2c(-c3ccccc3)c(-c3ccc(C4(N)CCC4)cc3)oc2n1 [Example 74, 1-(4-(2-(Methylthio)-5-phenyl-4-(trifluoromethyl)furo[2,3-d]pyrimidin-6-yl)phenyl)cyclobutanamine hydrochloride]	1000 to 10000 nM	> 10000 nM	1000 to 10000 nM
CSc1nc(I)c2c(-c3ccccc3)c(-c3ccc(C4(N)CCC4)cc3)oc2n1 [Example 75, 1-(4-(4-Iodo-2-(methylthio)-5-phenylfuro[2,3-d]pyrimidin-6-yl)phenyl)cyclobutanamine]	1000 to 10000 nM	> 10000 nM	1000 to 10000 nM
NC1(c2ccc(-c3oc4nc(NCCO)[nH]c(=O)c4c3-c3ccccc3)cc2)CCC1 [Example 76, 6-(4-(1-Aminocyclobutyl)phenyl)-2-((2-hydroxyethyl)amino)-5-phenylfuro[2,3-d]pyrimidin-4(3H)-one]	≤ 100 nM	1000 to 10000 nM	≤ 100 nM
NC1(c2ccc(-c3oc4nc(NCCO)nc(NCCO)c4c3-c3ccccc3)cc2)CCC1 [Example 77, 2,2′-((6-(4-(1-Aminocyclobutyl)phenyl)-5-phenylfuro[2,3-d]pyrimidine-2,4-diyl)bis(azanediyl))diethanol]	100 to 1000 nM	> 10000 nM	100 to 1000 nM
COc1ncnc2oc(-c3ccc(C4(N)CCC4)cc3)c(-c3ccccc3)c12 [Example 78, 1-(4-(4-Methoxy-5-phenylfuro[2,3-d]pyrimidin-6-yl)phenyl)cyclobutanamine]	100 to 1000 nM	> 10000 nM	≤ 100 nM
CNc1nc(NCCO)nc2oc(-c3ccc(C4(N)CCC4)cc3)c(-c3ccccc3)c12 [Example 79, 2-(6-(4-(1-Aminocyclobutyl)phenyl)-4-(methylamino)-5-phenylfuro[2,3-d]pyrimidin-2-ylamino)ethanol, HCl]	1000 to 10000 nM	> 10000 nM	100 to 1000 nM
COc1ncc(Br)c2oc(-c3ccc(C4(N)CCC4)cc3)c(-c3ccccc3)c12 [Example 80, 1-(4-(7-Bromo-4-methoxy-3-phenylfuro[3,2-c]pyridin-2-yl)phenyl)cyclobutanamine]	1000 to 10000 nM	> 10000 nM	100 to 1000 nM
CCNc1nc(NCCO)nc2oc(-c3ccc(C4(N)CCC4)cc3)c(-c3ccccc3)c12 [Example 81, 2-(6-(4-(1-Aminocyclobutyl)phenyl)-4-(ethylamino)-5-phenylfuro[2,3-d]pyrimidin-2-ylamino)ethanol, HCl]	1000 to 10000 nM	> 10000 nM	100 to 1000 nM
Cn1c(N2CCOCC2)nc2oc(-c3ccc(C4(N)CCC4)cc3)c(-c3ccccc3)c2c1=O [Example 82, 6-(4-(1-Aminocyclobutyl)phenyl)-3-methyl-2-morpholino-5-phenylfuro[2,3-d]pyrimidin-4(3H)-one]	1000 to 10000 nM	1000 to 10000 nM	100 to 1000 nM
COCCNc1nc2oc(-c3ccc(C4(N)CCC4)cc3)c(-c3ccccc3)c2c(=O)n1C [Example 83, 6-(4-(1-Aminocyclobutyl)phenyl)-2-(2-methoxyethylamino)-3-methyl-5-phenylfuro[2,3-d]pyrimidin-4(3H)-one]	1000 to 10000 nM	1000 to 10000 nM	100 to 1000 nM
CN(CCO)c1nc2oc(-c3ccc(C4(N)CCC4)cc3)c(-c3ccccc3)c2c(=O)n1C [Example 84, 6-(4-(1-Aminocyclobutyl)phenyl)-2-((2-hydroxyethyl)(methyl)amino)-3-methyl-5-phenylfuro[2,3-d]pyrimidin-4(3H)-one]	100 to 1000 nM	> 10000 nM	1000 to 10000 nM
